Numbers after ± are expanded uncertainties.
Experiment: activity coefficient (dimensionless); of the first substance listed, at infinite dilution; xn = mol fraction of the nth substance listed
Details: Liquid, x1 = 0

| SMILES | activity coefficient (297 K) | activity coefficient (307 K) | activity coefficient (316 K) | activity coefficient (325 K) | activity coefficient (335 K) | activity coefficient (344 K) |
| --- | --- | --- | --- | --- | --- | --- |
| CCCCCCCCCC [decane] + CCCC[n+]1ccc(C)cc1.F[B-](F)(F)F | 491 ± 94 | 430 ± 82 | 389 ± 74 | 359 ± 68 | 320 ± 61 | 283 ± 54 |
| CCCCCCCC [octane] + CCCC[n+]1ccc(C)cc1.F[B-](F)(F)F | 182 ± 34 | 170 ± 32 | 158 ± 30 | 142 ± 27 | 124 ± 23 | 119 ± 22 |
| CCCCCCCCC [nonane] + CCCC[n+]1ccc(C)cc1.F[B-](F)(F)F | 309 ± 59 | 275 ± 52 | 241 ± 46 | 229 ± 43 | 201 ± 38 | 201 ± 38 |
